The target in one data set is T1, human 5-HT1A receptors (Homo sapiens, UniProt P08908).
T1 construct: expressed in transfected cells; host or cells: CHO cells
T1 sequence (P08908 1-422): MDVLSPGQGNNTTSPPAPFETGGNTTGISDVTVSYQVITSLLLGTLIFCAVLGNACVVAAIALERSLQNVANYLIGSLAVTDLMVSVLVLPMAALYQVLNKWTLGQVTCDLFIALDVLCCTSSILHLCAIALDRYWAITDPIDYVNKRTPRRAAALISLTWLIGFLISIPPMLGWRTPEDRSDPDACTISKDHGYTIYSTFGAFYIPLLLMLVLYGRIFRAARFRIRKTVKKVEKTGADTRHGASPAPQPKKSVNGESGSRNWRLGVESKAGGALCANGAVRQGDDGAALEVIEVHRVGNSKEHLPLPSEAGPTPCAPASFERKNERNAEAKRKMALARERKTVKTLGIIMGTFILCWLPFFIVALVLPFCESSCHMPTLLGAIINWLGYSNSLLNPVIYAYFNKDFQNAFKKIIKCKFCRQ
Nature of the data set: displacement of [3H] 8-OH-DPAT from the 5-HT1A serotonin receptor. Format: binding. As to conditions: CHO cells stably transfected with human 5-HT1A receptors.

The next data set deals with 5-HT transporter (Rattus norvegicus, UniProt P31652). Description: Rat Brain 3H-Paroxetine Binding Assay (RB 5HT Transporter). The note with it: rat frontal cortical membranes; 3H-paroxetine 0.1 nM, 60 min, 25° C. The text has this:
Rat Brain ^3H-Paroxetine Binding Assay (RB 5HT Transporter):
This assay was used to determine a compound's affinity of the 5-HT transporter.
All reactions were terminated by the addition of ice cold Tris buffer followed by rapid filtration using a Tom Tech filtration device to separate bound from free ^3H-paroxetine.

The structures appear in SMILES notation.

5-HT transporter, sequence (P31652 whole entry): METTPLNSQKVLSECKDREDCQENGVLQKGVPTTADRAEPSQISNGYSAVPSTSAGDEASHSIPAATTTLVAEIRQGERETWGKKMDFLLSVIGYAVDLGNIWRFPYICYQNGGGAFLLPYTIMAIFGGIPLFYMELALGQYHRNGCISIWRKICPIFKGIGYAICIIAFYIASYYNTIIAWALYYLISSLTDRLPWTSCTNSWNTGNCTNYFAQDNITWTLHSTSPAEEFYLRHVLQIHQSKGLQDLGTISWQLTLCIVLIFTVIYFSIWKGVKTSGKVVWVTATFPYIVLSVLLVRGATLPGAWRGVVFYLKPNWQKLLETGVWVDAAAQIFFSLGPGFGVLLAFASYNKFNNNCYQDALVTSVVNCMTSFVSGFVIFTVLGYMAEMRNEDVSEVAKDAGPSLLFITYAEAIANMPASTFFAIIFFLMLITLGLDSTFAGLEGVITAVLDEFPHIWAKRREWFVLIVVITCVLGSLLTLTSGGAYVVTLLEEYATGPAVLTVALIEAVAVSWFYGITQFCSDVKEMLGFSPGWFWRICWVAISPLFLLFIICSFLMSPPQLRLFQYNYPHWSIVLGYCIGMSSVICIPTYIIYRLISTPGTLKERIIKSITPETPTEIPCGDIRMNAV

The compound `Fc1ccc(N2CCN([C@H]3CC[C@H](c4coc5ccccc54)CC3)CC2)c2ncccc12` [Compound 54, 8-{4-[4-trans(1-benzofuran-3-yl)cyclohexyl]-1-piperazinyl}-5-fluoroquinoline] had a melting point of 162 to 164 °C. The compound further gave a Ki on human 5-HT1A receptors of 25.1 nM. Besides, the inhibition constant Ki on 5-HT transporter amounted to 38 nM.

As for `Fc1cc(N2CCN([C@H]3CC[C@H](c4coc5ccccc54)CC3)CC2)c2ncccc2c1` [Compound 56, 8-{4-[4-trans(1-benzofuran-3-yl)cyclohexyl]-1-piperazinyl}-6-fluoroquinoline], the melting point is 195 to 197 °C. This compound also registered a Ki at human 5-HT1A receptors of 16.6 nM. On 5-HT transporter, this compound came in with a Ki of 77 nM.

For `COc1cccc2c1occ2[C@H]1CC[C@@H](N2CCN(c3ccc(F)c4cccnc34)CC2)CC1` [Compound 57, 5-fluoro-8-{4-[4-cis(7-methoxy-1-benzofuran-3-yl)cyclohexyl]-1-piperazinyl}quinoline], the melting point was 143 to 146 °C. The compound also had an inhibition constant Ki on human 5-HT1A receptors of 0.4 nM. In addition, on 5-HT transporter, the affinity, expressed as Ki, was 163 nM.

For the compound `COc1cccc2c1occ2[C@H]1CC[C@@H](N2CCN(c3cc(F)cc4cccnc34)CC2)CC1` [Compound 59, 6-fluoro-8-{4-[4-cis(7-methoxy-1-benzofuran-3-yl)cyclohexyl]-1-piperazinyl}quinoline], the melting point lay within 75 to 83 °C. Moreover, on human 5-HT1A receptors, the Ki was found to be 1.93 nM. The affinity at 5-HT transporter, expressed as Ki, was 48 nM.

The compound `COc1cccc2c1occ2[C@H]1CC[C@H](N2CCN(c3cc(F)cc4cccnc34)CC2)CC1` [Compound 60, 6-fluoro-8-{4-[4-trans(7-methoxy-1-benzofuran-3-yl)cyclohexyl]-1-piperazinyl}quinoline] registered a melting point of 195 to 197 °C. This compound returned an inhibition constant Ki on human 5-HT1A receptors of 0.16 nM. Further, affinity at 5-HT transporter was put at a Ki of 50 nM.

Turning to `COc1cccc2c1occ2[C@H]1CC[C@@H](N2CCN(c3cccc4cccnc34)CC2)CC1` [Compound 61, 8-{4-[4-cis(7-methoxy-1-benzofuran-3-yl)cyclohexyl]-1-piperazinyl}quinoline], the melting point is 66 to 67 °C. Moreover, the affinity at human 5-HT1A receptors corresponds to a Ki of 41.4 nM. This compound also displayed an inhibition constant (Ki) at 5-HT transporter of 27 nM.

On to `COc1cccc2c1occ2[C@H]1CC[C@H](N2CCN(c3cccc4cccnc34)CC2)CC1` [Compound 62, 8-{4-[4-trans(7-methoxy-1-benzofuran-3-yl)cyclohexyl]-1-piperazinyl}quinoline], for which the melting point is 195 to 197 °C. Further, the inhibition constant (Ki) on human 5-HT1A receptors stood at 0.26 nM. This compound came in with an inhibition constant (Ki) on 5-HT transporter of 46 nM.

`COc1ccc2occ([C@H]3CC[C@@H](N4CCN(c5cc(F)cc6cccnc56)CC4)CC3)c2c1` [Compound 67, 6-fluoro-8-{4-[4-cis(5-methoxy-1-benzofuran-3-yl)cyclohexyl]piperazin-1-yl}quinoline] displayed a melting point of 153 to 160 °C. Also, the inhibition constant Ki on human 5-HT1A receptors was found to be 14.4 nM. In addition, on 5-HT transporter, the Ki came to 146 nM.

On to `COc1ccc2occ([C@H]3CC[C@H](N4CCN(c5cc(F)cc6cccnc56)CC4)CC3)c2c1` [Compound 68, 6-fluoro-8-{4-[4-trans(5-methoxy-1-benzofuran-3-yl)cyclohexyl]piperazin-1-yl}quinoline], for which the melting point is 152 to 155 °C. For the same compound, affinity at human 5-HT1A receptors was put at a Ki of 0.22 nM. Affinity on 5-HT transporter was put at a Ki of 121 nM.

The compound `Fc1cc(N2CCN(C3CCC(c4cc5ccccc5o4)CC3)CC2)c2ncccc2c1` (stereo not drawn) [Compound 69, 8-[4-(4-benzofuran-2-yl-yclohexyl)-piperazin-1-yl]-6-fluoro-quinoline] displayed a melting point of 91 to 93 °C. Further, the Ki at human 5-HT1A receptors is 16.3 nM. This compound also gave an inhibition constant Ki at 5-HT transporter of 106 nM.

`COc1cc(N2CCN([C@H]3CC[C@@H](c4cc5ccccc5s4)CC3)CC2)c2ncccc2c1` [Compound 70] returned a melting point of 184 to 186 °C. On human 5-HT1A receptors, this compound had a Ki of 1550 nM. The same compound yielded an inhibition constant (Ki) on 5-HT transporter of 47 nM.

For the origin of these results see US7276603B2, “Benzofuranyl-and benzothienyl-piperazinyl quinolines and methods of their use” (Wyeth, priority 2003, dated 2007).
